Experimental data published in patent US11857544B2, “Composition or method including (t)ew-7197 for treating or preventing corneal endothelial diseases” (THE DOSHISHA, priority 2017, dated 2024).

Legend:
[1] = test system: activated form of cleaved caspase 3; assay: Western blot for cleaved caspase 3 in TGF-β-stimulated iFECD; type: cell-based, human; conditions: 0.1, 1, 10 μM
Description: […] were seeded on a 12-well plate at a ratio of 8×10^4 cells per well, and cultured at 37° C. (5% CO2) for 24 hours. DMEM+10% FBS+1% P/S was used as the medium. After 24 hours, the medium was removed. EW-7197 (Selleck Chemicals, 57530) was added so that the final concentration would be 0.1, 1, or 10 μM, and SB431542 (WAKO, 192-16541) was added so that the final concentration would be 10 μM, and the medium was cultured for 24 hours. DMEM+2% FBS+1% P/S was used as the medium. After 24 hours, the medium was removed and cultured […] so that the final concentration of 10 ng/ml of Transforming Growth Factor-132 Human recombinant (WAKO, 200-19911) and […] would be 0.1, 1, and 10 μM, and that of SB431542 would be 10 μM. DMEM+2% FBS+1% P/S was used as the medium. After 24 hours, the cell morphology and apoptosis were observed under a phase contrast microscope. To retrieve floating and dead cells, the medium was retrieved on ice, cells were washed twice with 1×PBS(-) and the solution thereof was also retrieved. The solution was centrifuged for 5 min at 4° C. and 800 g and the supernatant was discarded to obtain a precipitate. […] The detected band intensities were analyzed with Lumino Image Analyzer LAS-4000 mini (Fuji Film) and ImageQuantTM software (GE Healthcare).

[2] = test system: Col8a2 knock-in mice; assay: Corneal endothelial cell density after eye drops in Col8a2 knock-in mice (Example 5, 8 weeks); type: in vivo; conditions: for Amount of change in the corneal endothelial cell density (ΔECD): 0.02% eye drop 4 times a day
Description: This Example evaluated the efficacy of an EW-7197 eye drop on Fuchs' endothelial corneal dystrophy using a Fuchs' endothelial corneal dystrophy animal model, Col8a2 knock-in mice. Col8a2 knock-in mice are established animal models of Fuchs' endothelial corneal dystrophy (reference: Jun et al., Hum Mol Genet. 2012 Jan. 15; 21(2): 384-93). 5 μL of 0.02% (about 0.5 mM) EW-7197 eye drop or a base agent (7% DMSO containing PBS) was administered as an eye drop to both eyes of 4-month-old alpha 2 collagen 8 gene (Col8a2) knock-in mice 4 times a day for 8 weeks. The corneal endothelial cell density was measured using a specular microscope KS3M (Konan Medical, Inc.) at before eye drops, and 2, 4, 6, and 8 weeks after eye drops. Mice were euthanized by intraperitoneally administering an excessive amount (200 mg/kg body weight or greater) of anesthetic injection Somnopentyl (Kyoritsu Seiyaku Corporation) 8 weeks after injection. After confirming cardiac arrest, both eye balls were harvested. The harvested eye balls were incised to prepare a corneal fragment. Immunostaining of type I collagen and fibronectin was performed as follows. Image-Pro (Nippon Roper K.K.) was used to analyze the area of type I collagen and fibronectin expression.

[3] = test system: Col8a2 knock-in mice; assay: Corneal endothelial cell density after eye drops in Col8a2 knock-in mice (Example 6, 12 weeks); type: in vivo; conditions: eye drop group (0.02%, 0.1%)
Description: 5 μL of 0.02% (about 0.5 mM) EW-7197 eye drop, 0.1% (about 2.5 mM) EW-7197 eye drop, or a base agent (DMSO containing phosphate buffer) was administered as an eye drop to both eyes of 4-month-old alpha 2 collagen 8 gene (Col8a2) knock-in mice 4 times a day for 12 weeks. A surfactant was added to the base agent as needed. Those skilled in the art can use an appropriate and suitable surfactant (Kenji Motose (1984). “Tenganzai” [Eye drops] Nanzando; International Pharmaceutical Excipients Council Japan (2016). “Iyakuhin Tenkabutsu Jiten” [Pharmaceutical Excipient Encyclopedia] Yakuji Nippo, Limited). The corneal endothelial cell density was measured using a specular microscope KS3M (Konan Medical, Inc.) at before eye drops, and 3, 6, 9, and 12 weeks after eye drops. Mice were euthanized by intraperitoneally administering an excessive amount (200 mg/kg body weight or greater) of anesthetic injection Somnopentyl (Kyoritsu Seiyaku Corporation) 12 weeks after injection. After confirming cardiac arrest, both eye balls were harvested. The harvested eye balls were incised to prepare a corneal fragment. Immunostaining of fibronectin was performed. The immunostaining method was the following. Image-Pro (Nippon Roper K.K.) was used to analyze the area of fibronectin expression.

SMILES: Cc1cccc(-c2[nH]c(CNc3ccccc3F)nc2-c2ccc3ncnn3c2)n1 [EW-7197, N-((4-([1,2,4]triazolo[1,5-a]pyridin-6-yl)-5-(6-methylpyridin-2-yl)-1H-imidazol-2-yl)methyl)-2-fluoroaniline]
- activated form of cleaved caspase 3 (about 17 kDa) [1]: suppressed to the same degree as the control group without stimulation with TGF-β or 10 μM of SB431542
- decrease in the corneal endothelial cell density compared to the base agent group ([2]; 0.02% eye drop): suppressed significantly
- Amount of change in the corneal endothelial cell density (ΔECD) ([2]; week 0 (before eye drop)): 0 cells/mm^2
- Amount of change in the corneal endothelial cell density (ΔECD) ([2]; week 4): −121.4 cells/mm^2
- Amount of change in the corneal endothelial cell density (ΔECD) ([2]; week 8): −284.5 cells/mm^2
- corneal endothelial density at the center section of the cornea ([3]; up to week 6): tendency for suppressing a decrease
- corneal endothelial density at the center section of the cornea vs base agent eye drop group ([3]; week 12): a significant difference in the corneal endothelial density at the center section of the cornea was not observed
